Test results from ChEMBL document CHEMBL6121008, “New series of 3-pyridyl-1,3-thiazoles: In vitro and in vivo anti-Trypanosomatidae profile, in vitro and in silico mechanism of action approach” (Eur J Med Chem, 2025).
Activity calls are given as the source filed them. The rule behind the calls is not given here.

Columns and labels:
Trypanosoma cruzi [1] = experiment: (§1) Antiparasitic activity against trypomastigote form of Trypanosoma cruzi Tulahuen expressing Escherichia coli beta-galactosidase infected in mouse L929 cells assessed as reduction in parasitic growth using CPRG as substrate pretreated with compound for 96 hrs followed by substrate addition and measured after 16 to 20 hrs by Spectrophotometric analysis; format: functional, organism-based
[2] = Cytotoxicity against mouse L929 cells assessed as inhibition of cell viability incubated for 96 hrs by MTT assay; format: toxicity, cell-based
[3] = Selectivity index, ratio of CC50 for mouse L929 cells to IC50 for antiparasitic activity against trypomastigote and amastigote form of Trypanosoma cruzi Tulahuen expressing Escherichia coli beta-galactosidase infected in mouse L929 cells; format: toxicity; details: read-out: Selectivity Index
[4] = Acute toxicity in male Swiss-Webster mouse infected with Trypanosoma cruzi Y assessed as mortality at 5 to 200 mg/kg, po measured after 48 hrs; format: organism-based; details: in vivo, dose 5-200 mg/kg
[5] = Acute toxicity in male Swiss-Webster mouse infected with Trypanosoma cruzi Y assessed as side effects at 5 to 200 mg/kg, po measured after 48 hrs; format: organism-based; details: in vivo, dose 5-200 mg/kg
[6] = Acute toxicity in female Swiss-Webster mouse infected with Trypanosoma cruzi Y assessed as mortality at 5 to 200 mg/kg, po measured after 48 hrs; format: organism-based; details: in vivo, dose 5-200 mg/kg
[7] = Acute toxicity in female Swiss-Webster mouse infected with Trypanosoma cruzi Y assessed as side effects at 5 to 200 mg/kg, po measured after 48 hrs; format: organism-based; details: in vivo, dose 5-200 mg/kg
Trypanosoma cruzi [8] = experiment: Antiparasitic activity against Trypanosoma cruzi Y trypomastigotes infected in male Swiss mouse assessed as reduction in parasitemia at 100 mg/kg/day, po pre-infected with parasite followed by compound addition and measured at 1 to 5 days post-infection by microscopic analysis; format: functional, organism-based; details: time 1-5 day
[9] = Toxicity in male Swiss mouse infected with Trypanosoma cruzi Y trypomastigotes assessed as mortality at 100 mg/kg/day, po pre-infected with parasite followed by compound addition and measured after 5 to 9 days relative to control; format: organism-based; details: in vivo, time 5-9 day; for Activity: po, 100 mg/kg
Trypanosoma cruzi [10] = experiment: as §1, with “amastigote” for “trypomastigote”; format: functional, organism-based
Trypanosoma cruzi [11] = experiment: Antitrypanosomal activity against trypomastigote form of Trypanosoma cruzi Y assessed as induction of apoptosis at 1 times IC50 by measuring early apoptosis incubated for 24 hrs by Annexin V-FITC/7-AAD staining based flow cytometric analysis relative to control; format: functional
Trypanosoma cruzi [12] = experiment: Antitrypanosomal activity against trypomastigote form of Trypanosoma cruzi Y assessed as induction of apoptosis at 2 times IC50 by measuring late apoptotic cells incubated for 24 hrs by Annexin V-FITC/7-AAD staining based flow cytometric analysis relative to control; format: functional
Trypanosoma cruzi [13] = experiment: Antitrypanosomal activity against trypomastigote form of Trypanosoma cruzi Y assessed as induction of apoptosis at 2 times IC50 by measuring necrotic cells incubated for 24 hrs by Annexin V-FITC/7-AAD staining based flow cytometric analysis relative to control; format: functional
Trypanosoma cruzi [14] = experiment: Antitrypanosomal activity against trypomastigote form of Trypanosoma cruzi Y assessed as induction of apoptosis at 2 times IC50 by measuring early apoptosis incubated for 24 hrs by Annexin V-FITC/7-AAD staining based flow cytometric analysis relative to control; format: functional
Mitochondrial membrane = experiment: Induction of mitochondrial membrane hyperpolarization in trypomastigote form of Trypanosoma cruzi Y at IC50 incubated for 24 hrs by Rhodamine 123 staining based flow cytometric analysis; format: cell membranes
Cell membrane = experiment: Induction of cell membrane damage in trypomastigote form of Trypanosoma cruzi Y assessed as decrease in red fluorescence intensity incubated for 24 hrs by acridine orange staining based flow cytometric analysis; format: subcellular
Trypanosoma cruzi [15] = experiment: Antiparasitic activity against trypomastigote form of Trypanosoma cruzi Y assessed as presence of bubbles by Electron micrographic analysis; format: functional, organism-based
Trypanosoma cruzi [16] = experiment: Antiparasitic activity against trypomastigote form of Trypanosoma cruzi Y assessed as appearance of filamentous structures scattered across the membrane by Electron micrographic analysis; format: functional, organism-based
Trypanosoma cruzi [17] = experiment: Antiparasitic activity against trypomastigote form of Trypanosoma cruzi Y assessed as appearance of swollen cells with cytoplasmic content leakage by Electron micrographic analysis; format: functional, organism-based
Trypanosoma cruzi [18] = experiment: Antiparasitic activity against trypomastigote form of Trypanosoma cruzi Y assessed as appearance of ruptured cells with cytoplasmic content leakage by Electron micrographic analysis; format: functional, organism-based
RAW264.7 [19] = experiment: Immunomodulatory activity in mouse RAW264.7 cells assessed as nitric oxide formation at 1 to 4 times IC50 incubated for 72 hrs by Griess reagent based Spectrophotometric analysis; format: functional, cell-based
RAW264.7 [20] = experiment: Immunomodulatory activity in mouse RAW264.7 cells assessed as increase in IL-6 production at 1 to 4 times IC50 incubated for 24 to 144 hrs by flow cytometric analysis; format: functional, cell-based; details: time 24-144 hrs
RAW264.7 [21] = experiment: Immunomodulatory activity in mouse RAW264.7 cells assessed as decrease in IL-10 production at 1 to 4 times IC50 incubated for 24 to 144 hrs by flow cytometric analysis; format: functional, cell-based; details: time 24-144 hrs
RAW264.7 [22] = experiment: Immunomodulatory activity in mouse RAW264.7 cells assessed as decrease in TNF production at 1 to 4 times IC50 incubated for 24 to 144 hrs by flow cytometric analysis; format: functional, cell-based; details: time 24-144 hrs
Leishmania amazonensis [23] = experiment: (§2) Antiparasitic activity against Leishmania amazonensis WHOM/00 LTB 0016 promastigote expressing Escherichia coli beta-galactosidase assessed as reduction in parasitic growth using CPRG as substrate preincubated with compound for 72 hrs followed by substrate addition and measured after 10 mins by Spectrophotometric analysis; format: functional, organism-based
Leishmania infantum [24] = experiment: as §2, with “infantum MHOM/MA/67/ITMAP-263” for “amazonensis WHOM/00 LTB 0016”; format: functional, organism-based
Leishmania amazonensis [25] = experiment: as §2, with “amastigote” for “WHOM/00 LTB 0016 promastigote”, “beta-galactosidase infected in mouse RAW264.7 cells” for “beta-galactosidase”, “24” for “72”, “2 to 6 hrs” for “10 mins”; format: functional, organism-based
Leishmania infantum [26] = experiment: Antiparasitic activity against Leishmania infantum amastigote expressing Escherichia coli beta-galactosidase infected in mouse RAW264.7 cells assessed as reduction in parasitic growth using CPRG as substrate preincubated with compound for 24 hrs followed by substrate addition and measured after 2 to 6 hrs by Spectrophotometric analysis; format: functional, organism-based; details: Leishmania infantum, RAW264.7; read-out: IC50
[27] = Cytotoxicity against mouse RAW264.7 cells assessed as inhibition of cell viability incubated for 48 hrs by MTT assay; format: toxicity, cell-based
[28] = Selectivity index, ratio of CC50 for mouse RAW264.7 cells to IC50 for antiparasitic activity against Leishmania infantum amastigote expressing Escherichia coli beta-galactosidase infected in mouse RAW264.7 cells; format: toxicity; details: read-out: Selectivity Index
Trypanosoma cruzi [29] = experiment: Antiparasitic activity against trypomastigote form of Trypanosoma cruzi Y assessed as appearance of membrane rupture by Electron micrographic analysis; format: functional, organism-based
Trypanosoma cruzi [30] = experiment: Antiparasitic activity against trypomastigote form of Trypanosoma cruzi Y assessed as appearance of twisted bodies by Electron micrographic analysis; format: functional, organism-based
[31] = Selectivity index, ratio of CC50 for mouse RAW264.7 cells to IC50 for antiparasitic activity against Leishmania infantum MHOM/MA/67/ITMAP-263 promastigote expressing Escherichia coli beta-galactosidase; format: toxicity; details: read-out: Selectivity Index
[32] = Selectivity index, ratio of CC50 for mouse RAW264.7 cells to IC50 for antiparasitic activity against Leishmania amazonensis WHOM/00 LTB 0016 promastigote expressing Escherichia coli beta-galactosidase; format: toxicity; details: read-out: Selectivity Index
[33] = Selectivity index, ratio of CC50 for mouse RAW264.7 cells to IC50 for antiparasitic activity against Leishmania amazonensis amastigote expressing Escherichia coli beta-galactosidase infected in mouse RAW264.7 cells; format: toxicity; details: read-out: Selectivity Index

| SMILES | IC50 (Trypanosoma cruzi [1]) [nM] | CC50 at 96 h [2] [µM] | selectivity ratio [3] | Activity [4] | Activity [5] | Activity [6] | Activity [7] | Activity (Trypanosoma cruzi [8]) | Activity [9] | IC50 (Trypanosoma cruzi [10]) [nM] | Activity (Trypanosoma cruzi [11]) [%] | Activity (Trypanosoma cruzi [12]) [%] | Activity (Trypanosoma cruzi [13]) [%] | Activity (Trypanosoma cruzi [14]) [%] | Activity (Mitochondrial membrane) | Activity (Cell membrane) | Activity (Trypanosoma cruzi [15]) | Activity (Trypanosoma cruzi [16]) | Activity (RAW264.7 [20]) | Activity (RAW264.7 [21]) | further results |
| --- | --- | --- | --- | --- | --- | --- | --- | --- | --- | --- | --- | --- | --- | --- | --- | --- | --- | --- | --- | --- | --- |
| C/C(=N\Nc1nc(-c2cccc([N+](=O)[O-])c2)cs1)c1cccnc1 | 400 | 114 | 284 | Non-toxic | Non-toxic | Non-toxic | Non-toxic | inactive | Toxic | 400 | 29.2 | 9.39 | 2.31 | 7.55 | Active | Dose-dependent-effect | Dose-dependent-effect | Dose-dependent-effect | Active | Active | Activity (Trypanosoma cruzi [17]): Dose-dependent-effect; Activity (Trypanosoma cruzi [18]): Dose-dependent-effect; Activity (RAW264.7 [19]): Active; Activity (RAW264.7 [22]): inactive; IC50 (Leishmania amazonensis [23]): Not_active; IC50 (Leishmania infantum [24]): Not_active; IC50 (Leishmania amazonensis [25]; raw264.7): Not_active; IC50 (Leishmania infantum [26]): 93.8 µM; CC50 at 48 h [27]: 35.3 µM; selectivity ratio [28]: 0.4 |
| O=C(Cn1ccnc1[N+](=O)[O-])NCc1ccccc1 [BENZNIDAZOLE] | 4200 | 2070 | 494 | – | – | – | – | Active | – | 4200 | – | – | – | – | – | – | – | – | Active | Active | mortality ([9]; male, Swiss, read-out: Activity): 100%; Activity (Trypanosoma cruzi [29]): Active; Activity (Trypanosoma cruzi [30]): Active |
| C/C(=N\N=c1\scc(-c2ccccc2)n1C)c1cccnc1 | 300 | 3.5 | 11.7 | Non-toxic | Non-toxic | Non-toxic | Non-toxic | inactive | Toxic | 300 | 29.4 | 3.04 | 2.36 | 61.6 | Active | Dose-dependent-effect | Dose-dependent-effect | Dose-dependent-effect | Active | Active | Activity (Trypanosoma cruzi [30]): Dose-dependent-effect; Activity (Trypanosoma cruzi [17]): Dose-dependent-effect; Activity (Trypanosoma cruzi [18]): Dose-dependent-effect; Activity (RAW264.7 [19]): Active; Activity (RAW264.7 [22]): Active; IC50 (Leishmania amazonensis [23]; Leishmania amazonensis, WHOM/00 LTB 0016, read-out: IC50): 7.1 µM; IC50 (Leishmania infantum [24]; Leishmania infantum, MHOM/MA/67/ITMAP-263, read-out: IC50): 5.2 µM; IC50 (Leishmania amazonensis [25]; Leishmania amazonensis, RAW264.7, read-out: IC50): 9.4 µM; IC50 (Leishmania infantum [26]): 8.4 µM; CC50 at 48 h [27]: 5.5 µM; selectivity ratio [31]: 1.1; selectivity ratio [28]: 0.7; selectivity ratio [32]: 0.8; selectivity ratio [33]: 0.6 |
